Data set [1] concerns eye. Put plainly: Topical instillation, ocular side effects / irritation in rabbits. Type of data set: in vivo, Dutch-belted rabbits. On the procedure:
(§1) For rabbit experiments Dutch-belted rabbits of either sex weighing 1.5 to 2 kg were used for topical studies. Each animal was randomly assigned one eye for the experimental and the other for its control solution. Intraocular pressure was measured using a Digilab Pneumotonometer. Any animals showing asymmetry of intraocular pressure greater than 2 mm were excluded form the study.
(§2) The protocol was as follows. Baseline intraocular pressure was taken in each eye using 0.5% proparacaine hydrochloride for topical anesthesia. […] In a half hour this was repeated. Two hours later intraocular pressure was measured in each eye. In some animals intraocular pressure was also measured five hours later and all animals had measurement of intraocular pressure the following day.
(§3) Ethacrynic acid powder was dissolved in 3% methylcellulose to yield the desired concentration. […] The solution was refrigerated over night to yield a transparent, viscous fluid. The pH of the solution was determined by mixing one part of the control or experimental solution with five parts of distilled water. […] The 3% methylcellulose solution was refrigerated when not in use.
(§4) Experiments similar to those described above have also been performed using two esters of ethacrynic acid, RCOOCH2 CH2 N(CH2 CH3)2 (hereinafter "ester A") and RCOOCH2 CH2 CH2 N(CH2 CH3)2 (hereinafter "ester B"), where R is [2,3-dichloro-4-(2-methylene-1-oxobutyl)phenoxy]acetate.
(§5) In all these topical experiments 2 drops of the agent were given 5 minutes apart and control eyes were fully sham manipulated. […] However, not all the animals were slit lamped.

Data set [2] deals with intraocular pressure. As to the kind of experiment: Topical instillation, intraocular pressure in rabbits. It is filed as in vivo, Dutch-belted rabbits. On the procedure:
as §1, §2, §3, §4, §5

Data set [3] deals with eye. Put plainly: Ocular changes and intraocular pressure after perfusion in monkeys. It is filed as in vivo, cynomologous monkeys. The text has this: (§6) Ethacrynic acid (sodium salt) was used to increase aqueous humor outflow in cynomologous monkeys, as described below. Ethacrynic acid can be purchased from Merck, Sharp, and Dome, and is described in U.S. Pat. No. 3,255,241, hereby incorporated by reference. Ethacrynic acid has the chemical formula [2,3-dichloro-4-(2-methylene-1-oxobutyl) phenoxy] acetic acid. Any suitable analog described in U.S. Pat. No. 3,255,241 or its ester or amide derivative can also be used as described herein; for example, the following compounds may be used and are available from Allergan, Inc. (Irvine, Calif.), as indicated by the code number below the structure. [drawing 4]
(§7) Each animal was randomly assigned one eye for the experimental and the other for its control perfusion. The animals were fasted the night before the experiment. They were anesthetized intramuscularly with Methohexital Sodium 15 mg/kg and Pentobarbital Sodium 35 mg/kg. Supplemental anesthesia as required was carried out with Pentobarbital 10 mg/kg/hour. Needles were placed through the cornea into the anterior chamber and a two-step constant pressure perfusion method was performed in order to determine aqueous humor outflow facility. The basic medium for perfusion was Dulbecco's phosphate buffered saline with added 5.5 mM glucose. A 10 microliter bolus of the experimental or control solution (that would produce the desired final concentration in the anterior chamber) was injected through a T shaped connector piece in the infusion line.
(§8) Each vial of ethacrynic acid contained ethacrynate sodium powder equivalent to 50 mg of ethacrynic acid. […] The powder was diluted with the above basic medium (Dulbecco's with added glucose) to yield the desired concentration. The solution was mixed at room temperature until dissolved, and the pH was determined (always 7.2) before use; the solution was filtered with a 0.2 micron filter (Nuclepore); this produced a solution which was stable for 24 hours.
(§9) During perfusion experiments, a 10 microliter bolus injection was made using a Hamilton syringe. Since the monkey anterior chamber is approximately 200 microliters, 10 microliters of 10 mM ethacrynic acid was infused to achieve a final concentration of 0.5 mM ethacrynic acid.
Experiments were carried out using final ethacrynic acid concentrations in the aqueous humor of 0.1 mM to 0.5 mM. There were at least three animals and separate experiments carried out for each of the concentrations 0.1 MM, 0.25 mM, and 0.5 mM.

The nature of a further data set: Solution stability. It is filed as physicochemical. On the procedure:
as §8
Ethacrynic acid powder was dissolved in 3% methylcellulose to yield the desired concentration. The solution was mixed at room temperature for one hour and was stable for 24 hours. A similar osmotically balanced control solution was prepared from methyl cellulose powder dissolved in distilled water using low heat for several hours. The solution was refrigerated over night to yield a transparent, viscous fluid. The pH of the solution was determined by mixing one part of the control or experimental solution with five parts of distilled water. The pH ranged between 6.2 and 6.5 for both the control and experimental solutions. The 3% methylcellulose solution was refrigerated when not in use.

Data set [4] relates to aqueous humor outflow (trabecular meshwork). Put plainly: Two-step constant pressure perfusion of anterior chamber; aqueous humor outflow facility in cynomolgus monkeys in vivo. Details: species or system cynomologous monkeys.
From the text: as §6, §7, §8
The control solution was composed of 9.5 mg sodium chloride (to osmotically balance the experimental solution), 62.5 mg mannitol and 0.1 milliliter thimerosol dissolved in Dulbecco's phosphate buffered saline with 5.5 mM added glucose to yield the desired concentration.
as §9
[…] There were at least three animals and separate experiments carried out for each of the concentrations 0.1 MM, 0.25 mM, and 0.5 mM.

The next data set relates to cornea. Put plainly: Topical application, corneal edema in the monkey (flashlight and slit lamp examination). It is filed as in vivo. On the procedure: as §4
(§10) In the monkey, a significant pressure reduction 24 hours after application of 10 mM ester A was observed (control eyes changing from 17±3 to 21±2 mm Hg versus experimental eyes changing from 19±1 to 5±3 mm Hg; n=6). […] This was detected by flashlight examination and confirmed by slit lamp examination.

The test system of data set [5] is intraocular pressure. As to the kind of experiment: Topical application, intraocular pressure in the monkey. It is filed as in vivo. On the procedure: as §4
After topical application of 10 mM ester A, a reduction in intraocular pressure in the rabbit was observed. This was most apparent 24 hours after instillation ([…] intraocular pressure changing from 22±3 to 15±2 mm Hg; n=8). In all these topical experiments 2 drops of the agent were given 5 minutes apart and control eyes were fully sham manipulated. […] However, not all the animals were slit lamped.
as §10

The next data set in a line: Water solubility. It is filed as physicochemical.
For data set [6], the system named is calf eye outflow facility. Particulars: perfusion at 15 mm Hg and 22° C.; cited from earlier work.
A further data set relates to monkey eye outflow. Particulars: perfusion at 15 mm Hg and 22° C.; cited from earlier work.

These results are taken from US5863948A, “Increasing aqueous humor outflow” (priority 1994, dated 1999).

The structures appear in SMILES notation. Structures can show the parent of a compound that is named as a salt. Where two headings read alike, the source gives them in different places. A value given as a limit tells only on which side of the number the result lay.

As to `C=C(CC)C(=O)c1ccc(OCC(=O)OCCCN(CC)CC)c(Cl)c1Cl` [ester B, RCOOCH2 CH2 CH2 N(CH2 CH3)2], in the data set on eye [1] (10 mM ester B, at 24 hours), the signs of irritation entry is on record as “only minimal if any signs of irritation” and the “slit lamp observation of ocular inflammation” value is “no slit lamp observations of ocular inflammation”. Also, the “intraocular pressure, experimental eyes” value with intraocular pressure [2] (10 mM ester B, 24 hours, from 23±3, control eyes 24±2 to 24±2, n=5) stood at 15±3 mm Hg.

In the case of `C=C(CC)C(=O)c1ccc(OCC(=O)O)c(Cl)c1Cl` [ethacrynic acid, [2,3-dichloro-4-(2-methylene-1-oxobutyl)phenoxy] acetic acid], in the data set with eye [1] (5 mM topical), the conjunctival side effect result is recorded as “slight conjunctival infection” and the other side effects entry is reported as “no other side effects noted”. In the data set with eye [1] (10 mM topical), the “conjunctival side effect and irritation” value is “moderate conjunctival infection and signs of irritation”. For the same molecule, the “resolution of corneal toxicity and inflammation” value in the data set on eye [1] (higher concentrations (above 10 mM)) is given as “resolved without apparent sequelae”. Besides, in the data set with eye [1] (higher concentrations (above 10 mM), for several days), the “corneal toxicity and anterior chamber inflammation” value is “signs of corneal toxicity (corneal edema) and anterior chamber inflammation were apparent for several days”. Further, in the data set on eye [3] (a few days after the perfusion experiments), the “intraocular pressure after perfusion” value was “symmetrical and normal in both eyes”. For the same molecule, the dilated pupil result with eye [3] (dosages above 0.25 mM, treated eye) was “some of the animals developed a dilated pupil”. For the same molecule, in the data set on eye [3] (perfusion), the “chronic corneal edema, opacities or cataract formation” value is on record as “no chronic corneal edema or opacities or cataract formation” and the “corneal or crystalline lens changes” value was “no apparent corneal or crystalline lens changes”. Moreover, in the data set “Solution stability”, the stability of solution was 24 h. The “response in outflow facility” value in [4] (0.25 mM) is “approximately half the animals perfused responded with a substantial increase in outflow facility”. Further, the “mean increase in fluid outflow facility” value in [4] (0.5 mM final concentration in anterior chamber, control perfused eye no change) was 140%. Besides, the “increase in outflow facility” value in [4] (1.0 mM, one animal, 18% increase in control eye) amounted to 355%. For the same molecule, the “effect on outflow facility” value in [4] (lower dosages (below 0.25 mM)) was “no effect”. Moreover, in the data set with intraocular pressure [2] (5 mM in 3% methylcellulose, 2 hours, from 22.4 baseline, control eye 21.5 to 23.1, n=8, p less than 0.01), the “intraocular pressure, treated eye” value is 19.6 mm Hg. The “intraocular pressure, treated eye” value with intraocular pressure [2] (5 mM in 3% methylcellulose, next day, control eye 22.7) came to 22.4 mm. Moreover, the “intraocular pressure, treated eye” value with intraocular pressure [2] (10 mM and 3% methylcellulose, 24 hours, from 23.0 baseline, control eye 22.9 to 24.2, n=14, p less than 0.001) is on record as 20.0 mm Hg.

As to `C=C(CC)C(=O)c1ccc(OCC(=O)OCCN(CC)CC)c(Cl)c1Cl` [ester A, RCOOCH2 CH2 N(CH2 CH3)2], the irritation entry with eye [1] (5 mM ester A, two rabbits) was “minimal if any irritation”. For the same molecule, in the data set on eye [1] (10 mM ester A), the anterior chamber inflammation entry is recorded as “No anterior chamber inflammation was observed”; the “clearing of external irritation of the lid” value turned out to be 24 h; the “irritation of eyelid, conjunctiva, nictitating membrane” value is “Most of the animals demonstrated some irritation of the eyelid and a few to the conjunctiva and nictitating membrane”. Further, in the data set with eye [1] (10 mM ester A, not all animals slit lamped), the corneal changes entry was “no corneal changes were observed”. The same molecule came in with an intraocular pressure in the data set with intraocular pressure [2] (10 mM ester A, 24 hours after instillation, from 22±3, n=8, printed as control eye) of 15±2 mm Hg. Moreover, the corneal edema entry with cornea (5 mM ester A) is “corneal edema was likewise apparent”. For the same molecule, the corneal edema entry in the data set with cornea (10 mM ester A) is reported as “significant corneal edema was also observed in over half of the monkeys”. In addition, the “resolution of corneal edema” value in the data set on cornea (ester A topical, all animals) is reported as “corneal edema ultimately resolved in all animals”. Moreover, the pressure reduction result in the data set with intraocular pressure [5] (5 mM ester A) is recorded as “no pressure reduction was documented”. In the data set with intraocular pressure [5] (10 mM ester A, 24 hours, from 19±1, control eyes 17±3 to 21±2, n=6), the “intraocular pressure, experimental eyes” value is 5±3 mm Hg.

`C=C(CC)C(=O)c1ccc(OCC(=O)O)c(Cl)c1Cl` [sodium salt of ethacrynic acid]: the stability of solution in the data set “Solution stability” (Dulbecco's phosphate buffered saline with 5.5 mM glucose, pH 7.2) amounted to 24 h. The same molecule came in with a solubility in the data set “Water solubility” of about 40 mM.

Turning to `CCN1C(=O)C=CC1=O` [NEM, N-ethylmaleimide], in data set [6], the “dosage producing a significant increase in the facility of outflow” value was at least 4.7 mM. Moreover, the “outflow in the monkey eye” value in the data set on monkey eye outflow is given as “increase in outflow”.

For orientation: solubility means the concentration that dissolves in the medium under given conditions.
